Measured values reported in article PMC7139691, “Effect of Arginine on Chaperone-Like Activity of HspB6 and Monomeric 14-3-3ζ” (International Journal of Molecular Sciences, 2020).

Target: T1, HspB6 (Homo sapiens, UniProt O14558)
T1 construct: recombinant wild type; small oligomers of 55-60 kDa (dimers and tetramers)
T1 sequence (O14558 1-160): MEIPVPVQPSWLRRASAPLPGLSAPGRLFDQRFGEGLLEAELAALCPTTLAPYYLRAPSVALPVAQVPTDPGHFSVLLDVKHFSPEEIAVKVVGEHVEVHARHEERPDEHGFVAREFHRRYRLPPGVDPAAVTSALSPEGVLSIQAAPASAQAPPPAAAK
Assay: intrinsic tryptophan fluorescence titration
Format: binding
Conditions: read-out: Kdiss

Kd: 10 ± 3 mM
Compound: N=C(N)NCCC[C@H](N)C(=O)O [arginine]
